Results from patent US4476137A, “[1-(2-Benzoxazolyl)hydrazino]alkyl nitrile derivatives” (Abbott Laboratories, priority 1983, dated 1984).

Test system: dermal Arthus reaction
Experiment: reverse passive Arthus reaction test (Type III hypersensitivity), reduction of dermal lesion
Assay type: in vivo, Male Sprague-Dawley rats
Conditions: 100 mg/kg oral, 30 min before intradermal Anti-B.S.A.; lesion measured four hours later; 4 rats per group
Procedure: Proc. 35, 774 (1976). Each compound was administered orally to a group of four animals.
The […] passive Arthus reaction test in rats is conducted as follows: Male Sprague-Dawley rats weighing approximately 130-160 g. are used, 4 rats per group. All animals are injected intravenously with 0.5 ml. 0.075% Bovine Serum Albumin (B.S.A.)+2% Evans Blue solution. Each rat then receives an oral dose of drug; one drug is administered per group.
Thirty minutes subsequent to drug dosing, each animal is injected intradermally with 0.05 ml. 1.44% Anti-B.S.A. into the dorsal skin. Four hours later the animals are sacrificed, the dorsal skin reflexed, and the lesion excised. Two perpendicular diameters of each lesion are measured. The average diameters of the lesions from the treated groups are compared with the average diameters from the control group to determine any drug effect.

How did the “% Inhibition of lesion of dermal Arthus reaction” value turn out when CCCCC1C(=O)N(c2ccccc2)N(c2ccccc2)C1=O [Phenylbutazone, reference compound] was run?
Its value is “inactive”.

N#CCCN(N)c1nc2ccccc2s1 [3-[1-(2-benzthiazolyl)hydrazino]propanenitrile] was tested. Which “% Inhibition of lesion of dermal Arthus reaction” value did it give?
Its value is 59%.

Same assay, conditions: Rattus norvegicus, 4 h; 100 mg/kg oral, 30 min before intradermal Anti-B.S.A.; lesion measured four hours later; 4 rats per group

Cc1ccc2nc(N(N)CCC#N)oc2c1 [3-[1-(6-methyl-2-benzoxazolyl)hydrazino]propanenitrile] was tested. Which inhibition in vivo at 100 mg/kg did it give?
The inhibition in vivo at 100 mg/kg was 58%.

With CC(C#N)CN(N)c1nc2ccccc2o1 (stereo not shown) [3-[1-(2-benzoxazolyl)hydrazino]-2-methylpropanenitrile] as the compound, how does the inhibition in vivo at 100 mg/kg read?
The inhibition in vivo at 100 mg/kg was 45%.

Cc1cc2oc(N(N)CCC#N)nc2c(C)c1C [3-[1-(4,5,6-Trimethyl-2-benzoxazolyl)hydrazino]propanenitrile] was tested. Which inhibition in vivo at 100 mg/kg did it give?
Its inhibition in vivo at 100 mg/kg is 59%.

Which inhibition in vivo at 100 mg/kg does the source give for Cc1ccc2oc(N(N)CCC#N)nc2c1 [3-[1-(5-methyl-2-benzoxazolyl)hydrazino]propanenitrile] here?
Its inhibition in vivo at 100 mg/kg is 70%.

For Cc1cc2oc(N(N)CCC#N)nc2cc1Cl [3-[1-(6-methyl-5-chloro-2-benzoxazolyl)hydrazino]propanenitrile], which inhibition in vivo at 100 mg/kg is on record?
Its inhibition in vivo at 100 mg/kg is 76%.

For N#CCCN(N)c1nc2cc(C(F)(F)F)ccc2o1 [3-[1-(5-trifluoromethyl-2-benzoxazolyl)hydrazino]propanenitrile], which inhibition in vivo at 100 mg/kg is on record?
The inhibition in vivo at 100 mg/kg was 48%.

How did the inhibition in vivo at 100 mg/kg turn out when Cc1cc(C)c2oc(N(N)CCC#N)nc2c1 [3-[1-(5,7-dimethyl-2-benzoxazolyl)hydrazino]propanenitrile] was run?
Its inhibition in vivo at 100 mg/kg is 59%.

With Cc1cc(C)c2oc(N(N)CCC#N)nc2c1C [3-[1-(4,5,7-Trimethyl-2-benzoxazolyl)hydrazino]propanenitrile] as the compound, how does the inhibition in vivo at 100 mg/kg read?
The inhibition in vivo at 100 mg/kg was 55%.

Which inhibition in vivo at 100 mg/kg does the source give for N#CCCN(N)c1nc2cccc(Cl)c2o1 [3-[1-(7-Chloro-2-benzoxazolyl)hydrazino]propanenitrile] here?
Its inhibition in vivo at 100 mg/kg is 48%.

N#CCCN(N)c1nc2cc(C#N)ccc2o1 [3-[1-(5-cyano-2-benzoxazolyl)hydrazino]propanenitrile] was tested. Which inhibition in vivo at 100 mg/kg did it give?
Its inhibition in vivo at 100 mg/kg is 66%.

With N#CCCN(N)c1nc2ccccc2o1 [3-[1-(2-Benzoxazolyl)hydrazino]propanenitrile] as the compound, how does the inhibition in vivo at 100 mg/kg read?
Its inhibition in vivo at 100 mg/kg is 68%.

CC(CC#N)N(N)c1nc2ccccc2o1 (stereo not shown) [3-[1-(2-benzoxazolyl)hydrazino]-3-methylpropanenitrile] was tested. Which inhibition in vivo at 100 mg/kg did it give?
Its inhibition in vivo at 100 mg/kg is 48%.

Cc1cccc2nc(N(N)CCC#N)oc12 [3-[1-(7-methyl-2-benzoxazolyl)hydrazino]propanenitrile] was tested. Which inhibition in vivo at 100 mg/kg did it give?
Its inhibition in vivo at 100 mg/kg is 47%.

How did the inhibition in vivo at 100 mg/kg turn out when N#CCCN(N)c1nc2cc(CS)ccc2o1 [3-[1-(5-mercaptomethyl-2-benzoxazolyl)hydrazino]propanenitrile] was run?
Its inhibition in vivo at 100 mg/kg is 40%.

With COc1ccc2oc(N(N)CCC#N)nc2c1 [3-[1-(5-methoxy-2-benzoxazolyl)hydrazino]propanenitrile] as the compound, how does the inhibition in vivo at 100 mg/kg read?
Its inhibition in vivo at 100 mg/kg is 67%.

For N#CCCN(N)c1nc2cc(F)ccc2o1 [3-[1-(5-fluoro-2-benzoxazolyl)hydrazino]propanenitrile], which inhibition in vivo at 100 mg/kg is on record?
Its inhibition in vivo at 100 mg/kg is 55%.

Test system: carrageenin pleurisy
Experiment: modified carrageenin pleurisy assay (reduction in accumulation of exudate volume and leukocytes)
Assay type: in vivo
Conditions: Dose 100 (unit not given)
Description: The anti-inflammatory activity of these compounds was established by using a modification of the carrageenin pleurisy assay described in Vinegar et al. Proc. Soc. Exp. Biol. Med. 143:711 (1973).

Which “% Inhibition Cells (leukocyte accumulation)” value does the source give for CCCCC1C(=O)N(c2ccccc2)N(c2ccccc2)C1=O [Phenylbutazone, reference compound] here?
Its value is 13%.

And the “% Inhibition Volume exudates” value?
Its value is 59%.

For N#CCCN(N)c1nc2ccccc2o1 [3-[1-(2-Benzoxazolyl)hydrazino]propanenitrile], which “% Inhibition Cells (leukocyte accumulation)” value is on record?
The value was 39%.

And the “% Inhibition Volume exudates” value?
Its value is 61%.
